From patent US8901115B2, “Cyclic P1 linkers as factor XIa inhibitors” (Bristol-Myers Squibb Company, priority 2011, dated 2014)
Structures can show the parent of a compound that is named as a salt.

Test system: not given
Experiment: not given
Conditions: from C=CC[C@H](NC(=O)OC(C)(C)C)c1cc(-c2ccc(NC(=O)OC)cc2NC(=O)C(C)C=C)ccn1; rcm bond; 12-membered ring; Grubbs II (0.1 eq)/pTsOH; DCM; 4.0 mM; 40.0 °C
Compound `COC(=O)Nc1ccc2c(c1)NC(=O)C(C)C=CC[C@H](NC(=O)OC(C)(C)C)c1cc-2ccn1` (single isomer, unassigned; diastereomer a) has a ring closure, isolated yield of 25%.

Same assay, conditions: from C=CC[C@H](NC(=O)OC(C)(C)C)c1cc(-c2ccc(NC(=O)OC)cc2NC(=O)C(C)C=C)cnc1F; rcm bond; 12-membered ring; Grubbs II (0.4 eq), microwave; DCE; 17.3 mM; 120.0 °C
With `COC(=O)Nc1ccc2c(c1)NC(=O)C(C)/C=C/C[C@H](NC(=O)OC(C)(C)C)c1cc-2cnc1F` (stereo partly shown) the ring closure, isolated yield was 68%.

Same assay, conditions: from C=CC[C@H](NC(=O)OC(C)(C)C)c1nc(-c2ccc(NC(=O)OC)cc2N(C(=O)C(F)(F)F)[C@H](CC=C)C(=O)OC)cn1COCC[Si](C)(C)C; rcm bond; 12-membered ring; Grubbs II (0.03 eq); DCE; 37.7 mM; 85.0 °C; 16.0 h
For `COC(=O)Nc1ccc2c(c1)N(C(=O)C(F)(F)F)[C@@H](C(=O)OC)CC=CC[C@H](NC(=O)OC(C)(C)C)c1nc-2cn1COCC[Si](C)(C)C`, the ring closure, isolated yield was 29%.

Same assay, conditions: from C=CC[C@H](NC(=O)OC(C)(C)C)c1nc(-c2ccc(NC(=O)OC)cc2NC(=O)[C@H](C)C=C)cn1COCC[Si](C)(C)C; rcm bond; 12-membered ring; Grubbs II (0.4 eq)/pTsOH; DCM; 9.7 mM; 40.0 °C
With `COC(=O)Nc1ccc2c(c1)NC(=O)[C@H](C)/C=C/C[C@H](NC(=O)OC(C)(C)C)c1nc-2cn1COCC[Si](C)(C)C` the ring closure, isolated yield was 41%.

Same assay, conditions: from C=CC[C@H](NC(=O)OC(C)(C)C)c1nc(-c2ccc(NC(=O)OC)cc2N[C@H](CC=C)C(=O)OC)cn1COCC[Si](C)(C)C; rcm bond; 12-membered ring; Grubbs II (0.4 eq), microwave; DCE; 40.0 mM; 120.0 °C
With `COC(=O)Nc1ccc2c(c1)N[C@@H](C(=O)OC)C/C=C/C[C@H](NC(=O)OC(C)(C)C)c1nc-2cn1COCC[Si](C)(C)C` the ring closure, isolated yield was 23%.

Test system: not given
Experiment: not given
Conditions: from C=CCCC(=O)Nc1cc(NC(=O)OC)ccc1-c1cn(COCC[Si](C)(C)C)c([C@H](CC=C)NC(=O)OC(C)(C)C)n1; rcm bond; 13-membered ring; 1.5 h
`COC(=O)Nc1ccc2c(c1)NC(=O)CC/C=C/C[C@H](NC(=O)OC(C)(C)C)c1nc-2cn1COCC[Si](C)(C)C` showed a ring closure, yield after HPLC of 42%.

Target: purified human Factor XIa (Homo sapiens (Human), UniProt P03951)
Sequence (P03951 388-625): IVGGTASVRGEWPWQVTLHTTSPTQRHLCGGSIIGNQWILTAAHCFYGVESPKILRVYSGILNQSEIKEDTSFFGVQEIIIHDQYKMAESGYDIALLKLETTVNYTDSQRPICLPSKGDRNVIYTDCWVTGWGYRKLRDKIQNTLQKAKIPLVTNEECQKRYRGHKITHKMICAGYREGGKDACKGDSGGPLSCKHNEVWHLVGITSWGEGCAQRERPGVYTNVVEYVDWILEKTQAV
Sequence (P03951 19-387 partner): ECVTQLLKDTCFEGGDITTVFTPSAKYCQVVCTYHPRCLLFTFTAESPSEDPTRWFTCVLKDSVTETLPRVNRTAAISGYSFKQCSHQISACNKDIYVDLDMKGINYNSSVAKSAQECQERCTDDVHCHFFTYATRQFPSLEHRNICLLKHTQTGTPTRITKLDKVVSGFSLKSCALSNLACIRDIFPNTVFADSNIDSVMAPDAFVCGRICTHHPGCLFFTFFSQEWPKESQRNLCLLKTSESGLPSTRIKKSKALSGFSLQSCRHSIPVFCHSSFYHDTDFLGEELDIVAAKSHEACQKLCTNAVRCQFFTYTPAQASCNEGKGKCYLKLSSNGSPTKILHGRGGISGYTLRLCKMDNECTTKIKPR
Experiment: Factor XIa enzyme inhibition assay (chromogenic substrate S-2366)
Assay type: biochemical
Conditions: substrate S-2366, 50 mM HEPES pH 7.4
Description: The effectiveness of compounds of the present invention as inhibitors of the coagulation Factors XIa, VIIa, IXa, Xa, XIIa, plasma kallikrein or thrombin, can be determined using a relevant purified serine protease, respectively, and an appropriate synthetic substrate. The rate of hydrolysis of the chromogenic or fluorogenic substrate by the relevant serine protease was measured both in the absence and presence of compounds of the present invention. Assays were conducted at room temperature or at 37° C. […] A decrease in the rate of absorbance or fluorescence change in the presence of inhibitor is indicative of enzyme inhibition. Such methods are known to one skilled in the art. The results of this assay are expressed as the inhibitory constant, Ki.
Values of Ki were determined by allowing the protease to react with the substrate in the presence of the inhibitor. Reactions were allowed to go for periods of 20-180 minutes (depending on the protease) and the velocities (rate of absorbance or fluorescence change versus time) were measured. The following relationships were used to calculate Ki values: (vo−vs)/vs=I/(Ki(1+S/Km)) for a competitive inhibitor with one binding site; or vs/vo=A+((B−A)/(1+((IC50/(I))^n))); and Ki=IC50/(1+S/Km) for a competitive inhibitor where: […]
With `COC(=O)Nc1ccc2c(c1)N[C@@H](C(=O)OC)CCCC[C@H](N1CCC(c3cc(Cl)ccc3OC(F)F)OC1=O)c1nc-2c(C#N)[nH]1` (single isomer, unassigned) [Example 7] the Ki was 41.8 nM.
Compound `COC(=O)Nc1ccc2c(c1)NC(=O)[C@H](C)CCCC(N1CC(=O)N(c3c(C(F)(F)F)ccc(Cl)c3F)CC1=O)c1cc-2ccn1` (single isomer, unassigned) [Example 37, TFA salt] has a Ki of under 5 nM.
With `COC(=O)Nc1ccc2c(c1)NC(=O)CC/C=C/C[C@H](N1CCC(c3cc(Cl)ccn3)NC1=O)c1nc-2c[nH]1` (single isomer, unassigned) [Example 40] the Ki was 24.4 nM.
In the case of `COC(=O)Nc1ccc2c(c1)NC(=O)[C@H](C)CCC[C@H](N1CCC(c3nccc(Cl)c3F)NC1=O)c1nc-2c[nH]1` (single isomer, unassigned) [Example 58], the Ki is reported as under 5 nM.
With `COC(=O)Nc1ccc2c(c1)N[C@@H](C(=O)OC)CCCC[C@H](N1CCC(c3cccc(Cl)c3)OC1=O)c1nc-2c(C#N)[nH]1` (single isomer, unassigned) [Example 79] the Ki was 13.3 nM.
`COC(=O)Nc1ccc2c(c1)NC(=O)CC/C=C/C[C@H](N1CCC(C)(c3c(F)ccc(Cl)c3F)OC1=O)c1nc-2c(Cl)[nH]1` (single isomer, unassigned) [Example 99] gave a Ki of 1930 nM.
For `COC(=O)Nc1ccc2c(c1)NC(=O)[C@H](C)CCC[C@H](N1CCC(c3c(C(F)(F)F)ccc(Cl)c3F)OC1=O)c1cc-2ccn1` (single isomer, unassigned) [Example 133], the Ki was 69.3 nM.
`COC(=O)Nc1ccc2c(c1)NC(=O)CCCC[C@H](N1CCC(c3cccc(Cl)c3)CC1=O)c1nc-2c[nH]1` (single isomer, unassigned) [Example 147] gave a Ki of 9.48 nM.
Work on `COC(=O)Nc1ccc2c(c1)NC(=O)[C@H](C)CCC[C@H](N1CCC(c3cccc(Cl)c3)CC1=O)c1cc-2ccn1` (single isomer, unassigned) [Example 152] yielded a Ki of under 5 nM.
Work on `COC(=O)Nc1ccc2c(c1)NC(=O)CCCC[C@H](N1CCC(c3cccc(Cl)c3)OC1=O)c1nc-2c[nH]1` (stereo partly drawn) [Example 4, Methyl ((14S)-14-(6-(3-chlorophenyl)-2-oxo-1,3-oxazinan-3-yl)-9-oxo-8,16,18-triazatricyclo[13.2.1.0^2,7]octadeca-1(17),2,4,6,15(18)-pentaen-5-yl)carbamate] yielded a Ki of 3400 nM.
`COC(=O)Nc1ccc2c(c1)N[C@@H](C(=O)OC)CCCC[C@H](N1CCC(c3cccc(Cl)c3)OC1=O)c1nc-2c[nH]1` (stereo partly drawn) [Example 5, Methyl (9R,14S)-14-(6-(3-chlorophenyl)-2-oxo-1,3-oxazinan-3-yl)-5-((methoxycarbonyl)amino)-8,16,18-triazatricyclo[13.2.1.0^2,7]octadeca-1(17),2,4,6,15(18)-pentaene-9-carboxylate] showed a Ki of 12.2 nM.
For `COC(=O)Nc1ccc2c(c1)NC(=O)C(C)CCC[C@H](N1CC[C@H](c3c(F)ccc(Cl)c3F)OC1=O)c1cc-2cnn1` (stereo partly drawn) [Example 13, Methyl N-[(14S)-14-[(6R)-6-(3-chloro-2,6-difluorophenyl)-2-oxo-1,3-oxazinan-3-yl]-10-methyl-9-oxo-8,16,17-triazatricyclo[13.3.1.0^2,7]nonadeca-1(19),2(7),3,5,15,17-hexaen-5-yl]carbamate], the Ki was under 5 nM.
For `COC(=O)Nc1ccc2c(c1)NC(=O)[C@H](C)CCC[C@H](N1CCC(c3c(Cl)ccc(Cl)c3F)NC1=O)c1nc-2c[nH]1` (stereo partly drawn) [Example 18, Methyl N-[(10R,14S)-14-[4-(3,6-dichloro-2-fluorophenyl)-2-oxo-1,3-diazinan-1-yl]-10-methyl-9-oxo-8,16,18-triazatricyclo[13.2.1.0^2,7]octadeca-1(17),2,4,6,15(18)-pentaen-5-yl]carbamate], the Ki was 6.83 nM.
Work on `COC(=O)Nc1ccc2c(c1)NC(=O)[C@H](C)CCC[C@H](N1CCN(c3cccc(Cl)c3F)CC1=O)c1cc-2ccn1` [Example 20, Methyl N-[(10R,14S)-14-[4-(3-chloro-2-fluorophenyl)-2-oxopiperazin-1-yl]-10-methyl-9-oxo-8,16-diazatricyclo[13.3.1.0^2,7]nonadeca-1(19),2(7),3,5,15,17-hexaen-5-yl]carbamate] yielded a Ki of 7.46 nM.
With `C[C@@H]1CCC[C@H](N2CC[C@H](c3c(F)ccc(Cl)c3F)OC2=O)c2cc(ccn2)-c2cc(C(=O)O)ccc2NC1=O` [Example 26, (10R,14S)-14-[(6R)-6-(3-chloro-2,6-difluorophenyl)-2-oxo-1,3-oxazinan-3-yl]-10-methyl-9-oxo-8,16-diazatricyclo[13.3.1.0^2,7]nonadeca-1(19),2,4,6,15,17-hexaene-4-carboxylic acid, TFA salt] the Ki was under 5 nM.
With `COC(=O)Nc1ccc2c(c1)NC(=O)[C@H](C)CCC[C@H](N1CC[C@@H](c3c(F)ccc(Cl)c3F)NC1=O)c1nc-2c[nH]1` [Example 70] the Ki was under 5 nM.
`COC(=O)Nc1ccc2c(c1)NC(=O)[C@H](C)CCC[C@H](N1CC[C@@H](c3nccc(Cl)c3F)N(C)C1=O)c1nc-2c[nH]1` [Example 71] showed a Ki of 330 nM.
For `COC(=O)Nc1ccc2c(c1)NC(=O)[C@H](C)CCC[C@H](N1CC[C@H](c3nccc(Cl)c3F)N(C)C1=O)c1nc-2c[nH]1` [Example 72], the Ki was 28.8 nM.
`COC(=O)Nc1ccc2c(c1)NC(=O)CC/C=C/C[C@H](N1CC[C@H](c3cc(Cl)ccc3OC(F)F)OC1=O)c1nc-2c[nH]1` [Example 77] gave a Ki of 7.46 nM.
`COC(=O)Nc1ccc2c(c1)NC(=O)[C@H](C)CCC[C@H](N1CC[C@@H](c3c(F)ccc(Cl)c3F)OC1=O)c1cc-2ccn1` [Example 100] showed a Ki of under 5 nM.
`COC(=O)Nc1ccc2c(c1)NC(=O)[C@@H](C)CCC[C@H](N1CC[C@@H](c3c(F)ccc(Cl)c3F)OC1=O)c1ccnc-2c1` [Example 119] showed a Ki of 9.6 nM.

Same assay, conditions: substrate S-2366, 50 mM HEPES pH 7.4, TFA salt
With `COC(=O)Nc1ccc2c(c1)NC(=O)CC/C=C/C[C@H](N1CCC(C)(c3c(F)ccc(Cl)c3F)OC1=O)c1nc-2c(Cl)[nH]1` (stereo partly drawn) [Example 32, Methyl N-[(12E,15S)-18-chloro-15-[6-(3-chloro-2,6-difluorophenyl)-6-methyl-2-oxo-1,3-oxazinan-3-yl]-9-oxo-8,17,19-triazatricyclo[14.2.1.0^2,7]nonadeca-1(18),2,4,6,12,16(19)-hexaen-5-yl]carbamate, TFA salt] the Ki was 2460 nM.
